Results taken from US20070049564A1 (Wyeth, priority 2005, published 2007).
In brackets after ≈: the same amount, converted by molar mass. Where two headings read alike, the source gives them in different places.

What was measured:
E. coli GC 2236 = experiment: MIC, broth microdilution; settings: Escherichia coli
E. coli GC 2231 = experiment: MIC, broth microdilution; settings: Escherichia coli
E. coli GC 2235 = experiment: MIC, broth microdilution; settings: Escherichia coli
E. coli GC 2233 = experiment: MIC, broth microdilution; settings: Escherichia coli
E. coli GC 2234 = experiment: MIC, broth microdilution; settings: Escherichia coli
E. coli GC 2272 = experiment: MIC, broth microdilution; settings: Escherichia coli
E. coli GC 4560 = experiment: MIC, broth microdilution; settings: Escherichia coli
E. coli GC 6465 = experiment: MIC, broth microdilution; settings: Escherichia coli
E. coli GC 2203 = experiment: MIC, broth microdilution; settings: Escherichia coli
S. typhimurium GC 2172 = experiment: MIC, broth microdilution; settings: Salmonella enterica, TYPHIMURIUM
S. aureus GC 1131 = experiment: MIC, broth microdilution; settings: Staphylococcus aureus
S. aureus GC 6466 = experiment: MIC, broth microdilution; settings: Staphylococcus aureus
S. aureus GC 6467 = experiment: MIC, broth microdilution; settings: Staphylococcus aureus
Description: (§1) Antimicrobial susceptibility testing. The in vitro activities of the antibiotics are determined by the broth microdilution method as recommended by the National Committee for Clinical Laboratory Standards (NCCLS) (1). Mueller-Hinton II broth (MHBII)(BBL Cockeysville, Md.) is the medium employed in the testing procedures. Microtiter plates containing serial dilutions of each antimicrobial agent are inoculated with each organism to yield the appropriate density (10^5 CFU/ml) in a 100 μl final volume. The plates are incubated for 18-22 hours at 35° C. in ambient air.
Representative compounds were first incubated in mouse serum for an hour prior to the in vitro testing against a panel of selected gram-positive and gram-negative bacteria strains. All compounds were also pre-incubated in water for an hour prior to testing as control.

S. aureus GC 1079 = experiment: MIC, broth microdilution; settings: Staphylococcus aureus
S. epidermidis GC 4935 = experiment: MIC, broth microdilution; settings: Staphylococcus epidermidis
E. faecalis GC 4555 = experiment: MIC, broth microdilution; settings: Enterococcus faecalis
Description: as §1
(§2) Representative compounds were first incubated in mouse serum for an hour prior to the in vitro testing against a panel of selected gram-positive and gram-negative bacteria strains. All compounds were also pre-incubated in water for an hour prior to testing as control. Representative compounds of Formula I were incubated in human serum prior to MIC determination.

E. faecalis GC 2267 = experiment: MIC, broth microdilution; settings: Enterococcus faecalis
E. faecium GC 4556 = experiment: MIC, broth microdilution; settings: Enterococcus faecium
S. pneumoniae* GC 4465 = experiment: MIC, broth microdilution; settings: Streptococcus pneumoniae
Description: as §1, §2

Staph. = experiment: Range of MIC for Staph. strains, including MRSA; settings: Staphylococcus aureus, MRSA
[1] = GC2236, read-out: MINIMAL INHIBITORY CONCENTRATION MIC, pre-incubated in Mouse Serum
[2] = GC2236, read-out: MINIMAL INHIBITORY CONCENTRATION MIC, pre-incubated in Water
[3] = GC2231, read-out: MINIMAL INHIBITORY CONCENTRATION MIC, pre-incubated in Mouse Serum
[4] = GC2231, read-out: MINIMAL INHIBITORY CONCENTRATION MIC, pre-incubated in Water
[5] = GC2235, read-out: MINIMAL INHIBITORY CONCENTRATION MIC, pre-incubated in Mouse Serum
[6] = GC2235, read-out: MINIMAL INHIBITORY CONCENTRATION MIC, pre-incubated in Water
[7] = GC2233, read-out: MINIMAL INHIBITORY CONCENTRATION MIC, pre-incubated in Mouse Serum
[8] = GC2233, read-out: MINIMAL INHIBITORY CONCENTRATION MIC, pre-incubated in Water
[9] = GC2234, read-out: MINIMAL INHIBITORY CONCENTRATION MIC, pre-incubated in Mouse Serum
[10] = GC2234, read-out: MINIMAL INHIBITORY CONCENTRATION MIC, pre-incubated in Water
[11] = GC2272, read-out: MINIMAL INHIBITORY CONCENTRATION MIC, pre-incubated in Mouse Serum
[12] = GC2272, read-out: MINIMAL INHIBITORY CONCENTRATION MIC, pre-incubated in Water
[13] = GC4560, read-out: MINIMAL INHIBITORY CONCENTRATION MIC, pre-incubated in Mouse Serum
[14] = GC4560, read-out: MINIMAL INHIBITORY CONCENTRATION MIC, pre-incubated in Water
[15] = GC6465, read-out: MINIMAL INHIBITORY CONCENTRATION MIC, pre-incubated in Mouse Serum
[16] = GC6465, read-out: MINIMAL INHIBITORY CONCENTRATION MIC, pre-incubated in Water
[17] = GC2203, read-out: MINIMAL INHIBITORY CONCENTRATION MIC, pre-incubated in Mouse Serum
[18] = GC2203, read-out: MINIMAL INHIBITORY CONCENTRATION MIC, pre-incubated in Water
[19] = read-out: MINIMAL INHIBITORY CONCENTRATION MIC, pre-incubated in Mouse Serum
[20] = read-out: MINIMAL INHIBITORY CONCENTRATION MIC, pre-incubated in Water
[21] = GC1131, read-out: MINIMAL INHIBITORY CONCENTRATION MIC, pre-incubated in Mouse Serum
[22] = GC1131, read-out: MINIMAL INHIBITORY CONCENTRATION MIC, pre-incubated in Water
[23] = GC6466, read-out: MINIMAL INHIBITORY CONCENTRATION MIC, pre-incubated in Mouse Serum
[24] = GC6466, read-out: MINIMAL INHIBITORY CONCENTRATION MIC, pre-incubated in Water
[25] = GC6467, read-out: MINIMAL INHIBITORY CONCENTRATION MIC, pre-incubated in Mouse Serum
[26] = GC6467, read-out: MINIMAL INHIBITORY CONCENTRATION MIC, pre-incubated in Water
[27] = GC1079, read-out: MINIMAL INHIBITORY CONCENTRATION MIC, pre-incubated in Mouse Serum
[28] = GC1079, read-out: MINIMAL INHIBITORY CONCENTRATION MIC, pre-incubated in Water
[29] = GC4935, read-out: MINIMAL INHIBITORY CONCENTRATION MIC, pre-incubated in Mouse Serum
[30] = GC4935, read-out: MINIMAL INHIBITORY CONCENTRATION MIC, pre-incubated in Water
[31] = GC4555, read-out: MINIMAL INHIBITORY CONCENTRATION MIC, pre-incubated in Mouse Serum
[32] = GC4555, read-out: MINIMAL INHIBITORY CONCENTRATION MIC, pre-incubated in Water
[33] = GC2267, read-out: MINIMAL INHIBITORY CONCENTRATION MIC, pre-incubated in Mouse Serum
[34] = GC2267, read-out: MINIMAL INHIBITORY CONCENTRATION MIC, pre-incubated in Water
[35] = GC4556, read-out: MINIMAL INHIBITORY CONCENTRATION MIC, pre-incubated in Mouse Serum
[36] = GC4556, read-out: MINIMAL INHIBITORY CONCENTRATION MIC, pre-incubated in Water
[37] = read-out: Minimum inhibitory concentration (MIC), Staph. (mouse serum)
[38] = read-out: Range of MIC, Staph (Mouse Serum)

Row | Structure (SMILES) | MIC (E. coli GC 2236; [1]) | MIC (E. coli GC 2236; [2]) | MIC (E. coli GC 2231; [3]) | MIC (E. coli GC 2231; [4]) | MIC (E. coli GC 2235; [5]) | MIC (E. coli GC 2235; [6]) | MIC (E. coli GC 2233; [7]) | MIC (E. coli GC 2233; [8]) | MIC (E. coli GC 2234; [9]) | MIC (E. coli GC 2234; [10]) | MIC (E. coli GC 2272; [11]) | MIC (E. coli GC 2272; [12]) | MIC (E. coli GC 4560; [13]) | MIC (E. coli GC 4560; [14]) | MIC (E. coli GC 6465; [15]) | MIC (E. coli GC 6465; [16]) | MIC (E. coli GC 2203; [17]) | MIC (E. coli GC 2203; [18]) | MIC (S. typhimurium GC 2172; [19]) | MIC (S. typhimurium GC 2172; [20]) | further results
1 | CCCCN(CC(=O)Nc1cc(N(C)C)c2c(c1O)C(=O)C1=C(O)[C@]3(O)C(=O)C(C(N)=O)=C(O)[C@@H](N(C)C)[C@@H]3C[C@@H]1C2)C(=O)OCOC(=O)c1ccc(-c2ccccc2)cc1 [Example 21, ({[(2-{[(5aR,6aS,7S,10aS)-9-(aminocarbonyl)-4,7-bis(dimethylamino)-1,8,10a,11-tetrahydroxy-10,12-dioxo-5,5a,6,6a,7,10,10a,12-octahydrotetracen-2-yl]amino}-2-oxoethyl)(butyl)amino]carbonyl}oxy)methyl 1,1′-biphenyl-4-carboxylate] | 1 µg/mL (≈ 1.19 µM) | > 64 µg/mL | 1 µg/mL (≈ 1.19 µM) | > 64 µg/mL | 0.5 µg/mL (≈ 0.595 µM) | > 64 µg/mL | 1 µg/mL (≈ 1.19 µM) | > 64 µg/mL | 0.5 µg/mL (≈ 0.595 µM) | > 64 µg/mL | 1 µg/mL (≈ 1.19 µM) | > 64 µg/mL | 0.25 µg/mL (≈ 0.298 µM) | > 64 µg/mL | 4 µg/mL (≈ 4.76 µM) | > 64 µg/mL | 0.5 µg/mL (≈ 0.595 µM) | > 64 µg/mL | 4 µg/mL (≈ 4.76 µM) | > 64 µg/mL | MIC (S. aureus GC 1131; [21]): 1 µg/mL (≈ 1.19 µM); MIC (S. aureus GC 1131; [22]): 64 µg/mL (≈ 76.2 µM); MIC (S. aureus GC 6466; [23]): 1 µg/mL (≈ 1.19 µM); MIC (S. aureus GC 6466; [24]): 64 µg/mL (≈ 76.2 µM); MIC (S. aureus GC 6467; [25]): 4 µg/mL (≈ 4.76 µM); MIC (S. aureus GC 6467; [26]): > 64 µg/mL; MIC (S. aureus GC 1079; [27]): 4 µg/mL (≈ 4.76 µM); MIC (S. aureus GC 1079; [28]): > 64 µg/mL; MIC (S. epidermidis GC 4935; [29]): 2 µg/mL (≈ 2.38 µM); MIC (S. epidermidis GC 4935; [30]): 64 µg/mL (≈ 76.2 µM); MIC (E. faecalis GC 4555; [31]): 1 µg/mL (≈ 1.19 µM); MIC (E. faecalis GC 4555; [32]): 64 µg/mL (≈ 76.2 µM); MIC (E. faecalis GC 2267; [33]): 2 µg/mL (≈ 2.38 µM); MIC (E. faecalis GC 2267; [34]): 64 µg/mL (≈ 76.2 µM); MIC (E. faecium GC 4556; [35]): 2 µg/mL (≈ 2.38 µM); MIC (E. faecium GC 4556; [36]): 64 µg/mL (≈ 76.2 µM); MIC (S. pneumoniae* GC 4465; [19]): 0.25 µg/mL (≈ 0.298 µM); MIC (S. pneumoniae* GC 4465; [20]): 0.5 µg/mL (≈ 0.595 µM); MIC (Staph.; [37]): 1 to 4 µg/mL (≈ 1.19 to 4.76 µM); MIC (Staph.; [38]): 1 to 4 µg/mL (≈ 1.19 to 4.76 µM)
2 | CCCCN(CC(=O)Nc1cc(N(C)C)c2c(c1O)C(=O)C1=C(O)[C@]3(O)C(=O)C(C(N)=O)=C(O)[C@@H](N(C)C)[C@@H]3C[C@@H]1C2)C(=O)OCOC(=O)c1cc(C)cc(C)c1 [Example 22, ({[(2-{[(5aR,6aS,7S,10aS)-9-(aminocarbonyl)-4,7-bis(dimethylamino)-1,8,10a,11-tetrahydroxy-10,12-dioxo-5,5a,6,6a,7,10,10a,12-octahydrotetracen-2-yl]amino}-2-oxoethyl)(butyl)amino]carbonyl}oxy)methyl 3,5-dimethylbenzoate] | 2 µg/mL (≈ 2.53 µM) | > 64 µg/mL | 2 µg/mL (≈ 2.53 µM) | > 64 µg/mL | 1 µg/mL (≈ 1.26 µM) | > 64 µg/mL | 2 µg/mL (≈ 2.53 µM) | > 64 µg/mL | 1 µg/mL (≈ 1.26 µM) | > 64 µg/mL | 1 µg/mL (≈ 1.26 µM) | > 64 µg/mL | 0.5 µg/mL (≈ 0.631 µM) | > 64 µg/mL | 8 µg/mL (≈ 10.1 µM) | > 64 µg/mL | 1 µg/mL (≈ 1.26 µM) | > 64 µg/mL | 8 µg/mL (≈ 10.1 µM) | > 64 µg/mL | MIC (S. aureus GC 1131; [21]): 1 µg/mL (≈ 1.26 µM); MIC (S. aureus GC 1131; [22]): 4 µg/mL (≈ 5.05 µM); MIC (S. aureus GC 6466; [23]): 0.5 µg/mL (≈ 0.631 µM); MIC (S. aureus GC 6466; [24]): 2 µg/mL (≈ 2.53 µM); MIC (S. aureus GC 6467; [25]): 4 µg/mL (≈ 5.05 µM); MIC (S. aureus GC 6467; [26]): > 64 µg/mL; MIC (S. aureus GC 1079; [27]): 2 µg/mL (≈ 2.53 µM); MIC (S. aureus GC 1079; [28]): 32 µg/mL (≈ 40.4 µM); MIC (S. epidermidis GC 4935; [29]): 2 µg/mL (≈ 2.53 µM); MIC (S. epidermidis GC 4935; [30]): 16 µg/mL (≈ 20.2 µM); MIC (E. faecalis GC 4555; [31]): 2 µg/mL (≈ 2.53 µM); MIC (E. faecalis GC 4555; [32]): 64 µg/mL (≈ 80.8 µM); MIC (E. faecalis GC 2267; [33]): 4 µg/mL (≈ 5.05 µM); MIC (E. faecalis GC 2267; [34]): 64 µg/mL (≈ 80.8 µM); MIC (E. faecium GC 4556; [35]): 2 µg/mL (≈ 2.53 µM); MIC (E. faecium GC 4556; [36]): 64 µg/mL (≈ 80.8 µM); MIC (S. pneumoniae* GC 4465; [19]): 0.5 µg/mL (≈ 0.631 µM); MIC (S. pneumoniae* GC 4465; [20]): 1 µg/mL (≈ 1.26 µM); MIC (Staph.; [37]): 0.5 to 4 µg/mL (≈ 0.631 to 5.05 µM); MIC (Staph.; [38]): 0.5 to 4 µg/mL (≈ 0.631 to 5.05 µM)
